Measured values: patent publication US8012956B2, “Tropane compounds” (Exelixis, Inc., priority 2007, dated 2011)
pIC50: −log10 of the molar value.

The compounds below were run against HSP90 (Homo sapiens, UniProt P07900) (assay: HSP90 inhibition (HSP90 IC50)).
Type: biochemical

| Compound | pIC50 |
| --- | --- |
| COc1cccc(C(=O)N[C@H]2C[C@H]3CC[C@@H](C2)N3c2ccc(C(=O)NCc3ccccc3)cn2)c1CCCNC(C)C [6-[3-endo-({[2-{3-[(1-methylethyl)amino]propyl}-3-(methyloxy)phenyl]carbonyl}amino)-8-azabicyclo[3.2.1]oct-8-yl]-N-(phenylmethyl)pyridine-3-carboxamide] | 5.70 to 6.00 |
| COc1cccc(C(=O)NC2CC3CCC(C2)N3c2ccc(C(=O)NC(C)c3c(F)cc(C4CCNCC4)cc3F)cn2)c1C (stereo not drawn) [N-[1-(2,6-difluoro-4-piperidin-4-ylphenyl)ethyl]-6-[3-endo-({[2-methyl-3-(methyloxy)phenyl]carbonyl}amino)-8-azabicyclo[3.2.1]oct-8-yl]pyridine-3-carboxamide] | 5.00 to 5.70 |
| COc1cccc(C(=O)N[C@H]2C[C@H]3CC[C@@H](C2)N3c2ccc(C(=O)NCc3cccc(C)c3)cn2)c1C [6-[3-endo-({[2-methyl-3-(methyloxy)phenyl]carbonyl}amino)-8-azabicyclo[3.2.1]oct-8-yl]-N-[(3-methylphenyl)methyl]pyridine-3-carboxamide] | 5.00 to 5.70 |
| CNC(=O)c1ccc(N2[C@@H]3CC[C@H]2C[C@@H](NC(=O)c2cccc(OC)c2C)C3)nc1 [N-methyl-6-[3-endo-({[2-methyl-3-(methyloxy)phenyl]carbonyl}amino)-8-azabicyclo[3.2.1]oct-8-yl]pyridine-3-carboxamide] | 5.70 to 6.00 |
| CC[C@H](C)NC(=O)c1ccc(N2C3CCC2CC(NC(=O)c2cccc(OC)c2C)C3)nc1 (stereo partly drawn) [6-[3-endo-({[2-methyl-3-(methyloxy)phenyl]carbonyl}amino)-8-azabicyclo[3.2.1]oct-8-yl]-N-[(1S)-1-methylpropyl]pyridine-3-carboxamide] | 5.00 to 5.70 |
| C[C@H](NC(=O)c1ccc(N2C3CCC2CC(NC(=O)c2ccc(C(N)=O)c(OC4CCC4)c2)C3)nc1)c1ccc(N2CCN(C)CC2)cc1 (stereo partly drawn) [2-(cyclobutyloxy)-N4-(8-{5-[({(1S)-1-[4-(4-methylpiperazin-1-yl)phenyl]ethyl}amino)carbonyl]pyridin-2-yl}-8-azabicyclo[3.2.1]oct-3-endo-yl)benzene-1,4-dicarboxamide] | 6.00 to 6.30 |
| CCN1CCC[C@@H](NC(=O)c2ccc(N3C4CCC3CC(NC(=O)c3cc(C)c(C(N)=O)cc3C)C4)nc2)C1 (stereo partly drawn) [N-{8-[5-({[(3R)-1-ethylpiperidin-3-yl]amino}carbonyl)pyridin-2-yl]-8-azabicyclo[3.2.1]oct-3-endo-yl}-2,5-dimethylbenzene-1,4-dicarboxamide] | > 6.30 |
| COc1cccc(C(=O)NC2CC3CCC(C2)N3c2ccc(C(=O)NC3CCN(c4ccccc4)CC3)cn2)c1C (stereo not drawn) [6-[3-endo-({[2-methyl-3-(methyboxy)phenyl]carbonyl}amino)-8-azabicyclo[3.2.1]oct-8-yl]-N-(1-phenylpiperidin-4-yl)pyridine-3-carboxamide] | 5.00 to 5.70 |
| NC(=O)c1ccc(C(=O)N[C@H]2C[C@H]3CC[C@@H](C2)N3c2ccc(C(=O)CCNc3ccc(F)cc3)cn2)cc1NCC1CC1 [2-[(cyclopropylmethyl)amino]-N4-(8-{5-(N-(4-fluorophenyl)-beta-alanyl]pyridin-2-yl}-8-azabicyclo[3.2.1]oct-3-endo-yl)benzene-1,4-dicarboxamide] | 5.00 to 5.70 |
| N4-{8-[5- (cyclopropylcarbonyl)pyridin-2-yl]-8- azabicyclo[3.2.1]oct-3-endo-yl}-2- [(cis-4-hydroxy-4- methylcyclohexyl)amino]benzene- 1,4-dicarboxamide | > 6.30 |
| NC(=O)c1ccc(N2C3CCC2CC(NC(=O)c2ccc(C(N)=O)c(N[C@H]4CC[C@H](N)CC4)c2)C3)nc1 (stereo partly drawn) [N4-{8-[5-(aminocarbonyl)pyridin-2-yl]-8-azabicyclo[3.2.1]oct-3-endo-yl}-2-[(trans-4-aminocyclohexyl)amino]benzene-1,4-dicarboxamide] | > 6.30 |
| CCC(CC)Nc1cc(C(=O)NC2CC3CCC(C2)N3c2ccc(C(=O)NCC3CCCN3CC)cn2)c(C)cc1C(N)=O (stereo not drawn) [5-[(1-ethylpropyl)amino]-N-{8-[5-({[(1-ethylpyrrolidin-2-yl)methyl]amino}carbonyl)pyridin-2-yl]-8-azabicyclo[3.2.1]oct-3-endo-yl}-2-methylbenzene-1,4-dicarboxamide] | > 6.30 |
| COc1ccccc1NC(=O)c1ccc(N2[C@@H]3CC[C@H]2C[C@@H](NC(=O)c2cccc(OC)c2C)C3)nc1 [6-[3-endo-({[2-methyl-3-(methyloxy)phenyl]carbonyl}amino)-8-azabicyclo[3.2.1]oct-8-yl]-N-[2-(methyloxy)phenyl]pyridine-3-carboxamide] | 5.00 to 5.70 |
| COc1cccc(C(=O)NC2CC3CCC(C2)N3c2ccc(C(=O)NC(C)c3ccc(N4CCNCC4)nc3)cn2)c1C (stereo not drawn) [6-[3-endo-({[2-methyl-3-(methyloxy)phenyl]carbonyl}amino)-8-azabicyclo[3.2.1]oct-8-yl]-N-[1-(6-piperazin-1-ylpyridin-3-yl)ethyl]pyridine-3-carboxamide] | > 6.30 |
| COc1cccc(C(=O)N[C@H]2C[C@H]3CC[C@@H](C2)N3c2ccc(C(=O)NCc3c(F)ccc(C)c3Cl)cn2)c1C [N-[(2-chloro-6-fluoro-3-methylphenyl)methyl]-6-[3-endo-({[2-methyl-3-(methyloxy)phenyl]carbonyl}amino)-8-azabicyclo[3.2.1]oct-8-yl]pyridine-3-carboxamide] | 6.00 to 6.30 |
| CCN1CCC(NC(=O)c2ccc(N3[C@@H]4CC[C@H]3C[C@@H](NC(=O)c3cc(C)c(C(N)=O)cc3C)C4)nc2)CC1 [N-[8-(5-{[(1-ethylpiperidin-4-yl)amino]carbonyl}pyridin-2-yl)-8-azabicyclo[3.2.1]oct-3-endo-yl]-2,5-dimethylbenzene-1,4-dicarboxamide] | 6.00 to 6.30 |
| COc1cccc(C(=O)NC2CC3CCC(C2)N3c2ccc(C(=O)N[C@@H]3CCNC3)cn2)c1C (stereo partly drawn) [6-[3-endo-({[2-methyl-3-(methyloxy)phenyl]carbonyl}amino)-8-azabicyclo[3.2.1]oct-8-yl]-N-[(3R)-pyrrolidin-3-yl]pyridine-3-carboxamide] | 6.00 to 6.30 |
| COc1cccc(C(=O)N[C@H]2C[C@H]3CC[C@@H](C2)N3c2ccc(C(=O)NC3CNC3)cn2)c1C [N-azetidin-3-yl-6-[3-endo-({[2-methyl-3-(methyloxy)phenyl]carbonyl}amino)-8-azabicyclo[3.2.1]oct-8-yl]pyridine-3-carboxamide] | 6.00 to 6.30 |

Next, values leading:

| pIC50 | Compound |
| --- | --- |
| > 6.30 | CC(=O)c1ccc(N2[C@@H]3CC[C@H]2C[C@@H](NC(=O)c2ccc(C(N)=O)c(NC(C)C)c2)C3)nc1 [N4-[8-(5-acetylpyridin-2-yl)-8-azabicyclo[3.2.1]oct-3-endo-yl]-2-[(1-methylethyl)amino]benzene-1,4-dicarboxamide] |
| > 6.30 | Cc1cc(CO)ccc1C(=O)N[C@H]1C[C@H]2CC[C@@H](C1)N2c1ccc(C(=O)NCc2ccccc2)cn1 [6-[3-endo-({[4-(hydroxymethyl)-2-methylphenyl]carbonyl}amino)-8-azabicyclo[3.2.1]oct-8-yl]-N-(phenylmethyl)pyridine-3-carboxamide] |
| > 6.30 | Cc1cc(C(N)=O)c(NC(C(C)C)C(F)(F)F)cc1C(=O)N[C@H]1C[C@H]2CC[C@@H](C1)N2c1ccc(C(=O)C2CC2)cn1 (stereo partly drawn) [N-{8-[5-(cyclopropylcarbonyl)pyridin-2-yl]-8-azabicyclo[3.2.1]oct-3-endo-yl}-2-methyl-5-{[2-methyl-1-(trifluoromethyl)propyl]amino}benzene-1,4-dicarboxamide] |
| > 6.30 | CC(=O)c1ccc(N2[C@@H]3CC[C@H]2C[C@@H](NC(=O)c2ccc(C(N)=O)c(NC(C)C(C)(C)C)c2)C3)nc1 (stereo partly drawn) [N4-[8-(5-acetylpyridin-2-yl)-8-azabicyclo[3.2.1]oct-3-endo-yl]-2-[(1,2,2-trimethylpropyl)amino]benzene-1,4-dicarboxamide] |
| > 6.30 | CCC(COC)Nc1cc(C(=O)N[C@H]2C[C@H]3CC[C@@H](C2)N3c2ccc(C(C)=O)cn2)ccc1C(N)=O (stereo partly drawn) [N4-(8-(5-acetylpyridin-2-yl)-8-azabicyclo[3.2.1]oct-3-endo-yl]-2-({1-[(methyloxy)methyl]propyl}amino) benzene-1,4-dicarboxamide] |
| > 6.30 | CC[C@@H](C)Nc1c(C(N)=O)cc(Br)c(C(=O)NC2CC3CCC(C2)N3c2ccc(C(=O)C3CC3)cn2)c1Cl (stereo partly drawn) [5-bromo-3-chloro-N4-{8-[5-(cyclopropylcarbonyl)pyridin-2-yl]-8-azabicyclo[3.2.1]oct-3-endo-yl}-2-{[(1R)-1-methylpropyl]amino}benzene-1,4-dicarboxamide] |
| > 6.30 | CCC(CC)Nc1cc(C(=O)NC2CC3CCC(C2)N3c2ccc(C(=O)N[C@@H]3CCCN(C(C)C)C3)cn2)c(C)cc1C(N)=O (stereo partly drawn) [5-[(1-ethylpropyl)amino]-2-methyl-N-{8-[5-({[(3R)-1-(1-methylethyl)piperidin-3-yl]amino}carbonyi)pyridin-2-yl]-8-azabicyclo[3.2.1]oct-3-endo-yl}benzene-1,4-dicarboxamide] |
| > 6.30 | CC(=O)c1ccc(N2[C@@H]3CC[C@H]2C[C@@H](NC(=O)c2ccc(C(N)=O)c(NCCC(F)(F)F)c2)C3)nc1 [N4-[8-(5-acetylpyridin-2-yl)-8-azabicyclo[3.2.1]oct-3-endo-yl]-2-[(3,3,3-trifluoropropyl)amino]benzene-1,4-dicarboxamide] |
| > 6.30 | COc1cccc(C(=O)N[C@H]2C[C@H]3CC[C@@H](C2)N3c2ccc(C(=O)NCc3c(F)ccc(F)c3Cl)cn2)c1C [N-[(2-chloro-3,6-difluorophenyl)methyl]-6-[3-endo-({[2-methyl-3-(methyloxy)phenyl]carbonyl}amino)-8-azabicyclo[3.2.1]oct-8-yl]pyridine-3-carboxamide] |
| > 6.30 | CNc1cccc(C(=O)NC2CC3CCC(C2)N3c2ccc(C(=O)N[C@@H](C)c3ccc(N4CCN(C)CC4)cc3)cn2)c1C (stereo partly drawn) [6-[3-endo-({[2-methyl-3-(methylamino)phenyl]carbonyl}amino)-8-azabicyclo[3.2.1]oct-8-yl]-N-{(1S)-1-[4-(4-methylpiperazin-1-yl)phenyl]ethyl}pyridine-3-carboxamide] |
| > 6.30 | COc1cccc(C(=O)N[C@H]2C[C@H]3CC[C@@H](C2)N3c2ccc(C(=O)NCc3ccccc3Cl)cn2)c1C [N-[(2-chlorophenyl)methyl]-6-[3-endo-({[2-methyl-3-(methyloxy)phenyl]carbonyl}amino)-8-azabicyclo[3.2.1]oct-8-yl]pyridine-3-carboxamide] |
